Key:
[1] = biological target: GDP-bound KRAS wild-type protein (Homo sapiens, UniProt P01116); test: Binding to KRAS by surface plasmon resonance (SPR), dissociation constant KD; conditions: 1:1 binding model
How it was run: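 Running buffer contained 10 µM GDP and 10 mM MgCl2 to keep RAS in the GDP state, with 4% DMSO at pH 7.4. Compounds were flowed at 100 µL/min in 75 s steps of rising concentration over captured biotin-Avi RAS at 30°C. Sensorgrams were fitted 1:1 for KD.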

[2] = biological target: GDP-bound NRAS wild-type protein (Homo sapiens, UniProt P01111); test: Binding to NRAS by surface plasmon resonance (SPR), KD and KD ratio to KRAS; conditions: ratio of KD for GDP-bound NRAS wild-type protein to KD for KRAS
How it was run: (§1)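 SPR, 30°C: Avi-biotin RAS·GDP captured via Biotin CAPture (~100–300 RU); running buffer HBS pH 7.4, 1 mM DTT, 10 mM MgCl2, 0.01% Tween 20, 10 µM GDP, 4% DMSO. Single-cycle kinetics, 100 µL/min, 75 s injections; 1:1 model → KD.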

HRAS wild-type protein = HRAS wild-type protein (Homo sapiens, UniProt P01112); test: Binding to HRAS by surface plasmon resonance (SPR), KD and KD ratio to KRAS; conditions: ratio of KD for HRAS wild-type protein to KD for KRAS
How it was run: as §1

[3] = tested on: human lung cancer strain NCI-H441; test: NCI-H441 cell proliferation inhibitory activity (CellTiter-Glo, 4 days); assay type: cell-based; conditions: NCI-H441 cells, 4 days, read-out: NCl-H441 IC50
How it was run: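 Proliferation was scored by […] measured after the reagent was added to cultures kept at 37°C in 5% carbon dioxide.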

GDP-bound NRAS wild-type protein, sequence (P01111 whole entry): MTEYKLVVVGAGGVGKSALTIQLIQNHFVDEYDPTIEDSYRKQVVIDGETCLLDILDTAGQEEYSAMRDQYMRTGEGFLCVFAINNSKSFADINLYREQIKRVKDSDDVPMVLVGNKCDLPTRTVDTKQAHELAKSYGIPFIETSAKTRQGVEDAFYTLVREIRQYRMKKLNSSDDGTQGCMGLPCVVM
HRAS wild-type protein, sequence (P01112 whole entry): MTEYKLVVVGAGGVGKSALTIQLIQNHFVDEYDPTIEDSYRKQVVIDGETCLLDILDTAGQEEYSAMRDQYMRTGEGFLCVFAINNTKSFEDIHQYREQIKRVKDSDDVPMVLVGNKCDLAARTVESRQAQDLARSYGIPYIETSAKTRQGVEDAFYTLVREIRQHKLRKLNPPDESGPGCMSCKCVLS
GDP-bound KRAS wild-type protein, sequence (P01116 1-188 isoform P01116-2): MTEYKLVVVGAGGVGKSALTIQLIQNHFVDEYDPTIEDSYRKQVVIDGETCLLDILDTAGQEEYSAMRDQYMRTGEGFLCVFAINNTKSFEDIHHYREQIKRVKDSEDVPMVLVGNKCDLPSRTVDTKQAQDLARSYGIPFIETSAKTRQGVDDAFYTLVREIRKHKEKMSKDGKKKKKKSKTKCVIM

SMILES	Kd [1]	NRAS /KRAS [2]	HRAS /KRAS (HRAS wild-type protein)	IC50 [3]
CCO[C@@H]1C[C@H]2C(=O)NC3(CC(C)(C)C3)C(=O)N(C)[C@@H](C(CC)CC)C(=O)N(C)[C@H](C(=O)N(C)C)CC(=O)N(C)[C@@H](COC)C(=O)N[C@@H]([C@@H](C)CC)C(=O)N(C)CC(=O)N(C)[C@H]3C/C=C\CCN(C3=O)[C@@H](CC3CCCCC3)C(=O)N(C)CC(=O)N[C@@H](CCc3ccc(C(F)(F)F)c(Cl)c3)C(=O)N2C1 [PP2468]	1.3 nM	AA (a compound having 20 or more is denoted as AA)	A (a compound having 10 or more and less than 20 is denoted as A)	72.2 nM
CCOC[C@H]1C(=O)N[C@@H]([C@@H](C)CC)C(=O)N(C)CC(=O)N(C)[C@H]2C/C=C\CCN(C2=O)[C@@H](CC2CCCCC2)C(=O)N(C)CC(=O)N[C@@H](CCc2ccc(C(F)(F)F)c(OC)c2)C(=O)N2C[C@H](OCC)C[C@H]2C(=O)NC2(CC(C)(C)C2)C(=O)N(C)[C@@H](C(CC)CC)C(=O)N(C)[C@H](C(=O)N(C)C)CC(=O)N1C [PP2470]	1.8 nM	A (a compound having 10 or more and less than 20 is denoted as A)	A (a compound having 10 or more and less than 20 is denoted as A)	118 nM
CCCOC[C@H]1C(=O)N[C@@H]([C@@H](C)CC)C(=O)N(C)CC(=O)N(C)[C@H]2C/C=C\CCN(C2=O)[C@@H](Cc2ccc(C)cc2)C(=O)N(C)CC(=O)N[C@@H](CCc2cc(F)c(C(F)(F)F)c(F)c2)C(=O)N2C[C@@H](C)C[C@H]2C(=O)NC2(CC(C)(C)C2)C(=O)N(C)[C@@H](C2CCCC2)C(=O)N(C)[C@H](C(=O)N(C)CC)CC(=O)N1C [PP2471]	0.16 nM	A (a compound having 10 or more and less than 20 is denoted as A)	A (a compound having 10 or more and less than 20 is denoted as A)	15.3 nM
CCCOC[C@H]1C(=O)N[C@@H]([C@@H](C)CC)C(=O)N(C)CC(=O)N(C)[C@H]2C/C=C\CCN(C2=O)[C@@H](CC2CCC(F)(F)CC2)C(=O)N(C)CC(=O)N[C@@H](CCc2cc(F)c(C(F)(F)F)c(F)c2)C(=O)N2C[C@H](OCC)C[C@H]2C(=O)NC2(CC(C)(C)C2)C(=O)N(C)[C@@H](C(CC)CC)C(=O)N(C)[C@H](C(=O)N(C)C)CC(=O)N1C [PP2472]	0.58 nM	A (a compound having 10 or more and less than 20 is denoted as A)	A (a compound having 10 or more and less than 20 is denoted as A)	42.3 nM
CCOC[C@H]1C(=O)N[C@@H]([C@@H](C)CC)C(=O)N(C)CC(=O)N(C)[C@H]2C/C=C\CCN(C2=O)[C@@H](CC2CCC(F)(F)CC2)C(=O)N(C)CC(=O)N[C@@H](CCc2ccc(C(F)(F)F)c(Cl)c2)C(=O)N2C[C@@H](C)C[C@H]2C(=O)NC2(CC(C)(C)C2)C(=O)N(C)[C@@H](C(CC)CC)C(=O)N(C)[C@H](C(=O)N(C)C)CC(=O)N1C [PP2475]	1.5 nM	AA (a compound having 20 or more is denoted as AA)	A (a compound having 10 or more and less than 20 is denoted as A)	176 nM
CCO[C@@H]1C[C@H]2C(=O)NC3(CC(C)(C)C3)C(=O)N(C)[C@@H](C(CC)CC)C(=O)N(C)[C@H](C(=O)N(C)C)CC(=O)N(C)[C@@H](C(C)C)C(=O)N[C@@H]([C@@H](C)CC)C(=O)N(C)CC(=O)N(C)[C@H]3C/C=C\CCN(C3=O)[C@@H](CC3CCC(F)(F)CC3)C(=O)N(C)CC(=O)N[C@@H](CCc3ccc(C(F)(F)F)c(OC)c3)C(=O)N2C1 [PP2477]	1.8 nM	A (a compound having 10 or more and less than 20 is denoted as A)	A (a compound having 10 or more and less than 20 is denoted as A)	127 nM
CCOC[C@H]1C(=O)N[C@@H]([C@@H](C)CC)C(=O)N(C)CC(=O)N(C)[C@H]2C/C=C\CCN(C2=O)[C@@H](CC2CCCCC2)C(=O)N(C)CC(=O)N[C@@H](CCc2cc(F)c(C(F)(F)F)c(F)c2)C(=O)N2C[C@H](OCC)C[C@H]2C(=O)NC2(CC(C)(C)C2)C(=O)N(C)[C@@H](C(CC)CC)C(=O)N(C)[C@H](C(=O)N(C)C)CC(=O)N1C [PP2479]	1.4 nM	AA (a compound having 20 or more is denoted as AA)	A (a compound having 10 or more and less than 20 is denoted as A)	26 nM
CCO[C@@H]1C[C@H]2C(=O)NC3(CC(C)(C)C3)C(=O)N(C)[C@@H](C(CC)CC)C(=O)N(C)[C@H](C(=O)N(C)C)CC(=O)N(C)[C@@H](CC3CC3)C(=O)N[C@@H]([C@@H](C)CC)C(=O)N(C)CC(=O)N(C)[C@H]3C/C=C\CCN(C3=O)[C@@H](CC3CCC(F)(F)CC3)C(=O)N(C)CC(=O)N[C@@H](CCc3ccc(C(F)(F)F)c(OC)c3)C(=O)N2C1 [PP2480]	0.84 nM	A (a compound having 10 or more and less than 20 is denoted as A)	A (a compound having 10 or more and less than 20 is denoted as A)	30.5 nM
CCO[C@@H]1C[C@H]2C(=O)NC3(CC(C)(C)C3)C(=O)N(C)[C@@H](C(CC)CC)C(=O)N(C)[C@H](C(=O)N(C)C)CC(=O)N(C)[C@@H](C(C)C)C(=O)N[C@@H]([C@@H](C)CC)C(=O)N(C)CC(=O)N(C)[C@H]3C/C=C\CCN(C3=O)[C@@H](CC3CCC(F)(F)CC3)C(=O)N(C)CC(=O)N[C@@H](CCc3cc(F)c(C(F)(F)F)c(F)c3)C(=O)N2C1 [PP2481]	1.6 nM	A (a compound having 10 or more and less than 20 is denoted as A)	A (a compound having 10 or more and less than 20 is denoted as A)	33.6 nM
CCCOC[C@H]1C(=O)N[C@@H]([C@@H](C)CC)C(=O)N(C)CC(=O)N(C)[C@H]2C/C=C\CCN(C2=O)[C@@H](CC2CCC(F)(F)CC2)C(=O)N(C)CC(=O)N[C@@H](CCc2ccc(C(F)(F)F)c(OC)c2)C(=O)N2C[C@@H](C)C[C@H]2C(=O)NC2(CC(C)(C)C2)C(=O)N(C)[C@@H](C(CC)CC)C(=O)N(C)[C@H](C(=O)N(C)C)CC(=O)N1C [PP2483]	1.6 nM	A (a compound having 10 or more and less than 20 is denoted as A)	A (a compound having 10 or more and less than 20 is denoted as A)	195 nM
CCCOC[C@H]1C(=O)N[C@@H]([C@@H](C)CC)C(=O)N(C)CC(=O)N(C)[C@H]2C/C=C\CCN(C2=O)[C@@H](CC2CCC(F)(F)CC2)C(=O)N(C)CC(=O)N[C@@H](CCc2ccc(C(F)(F)F)c(Cl)c2)C(=O)N2C[C@H](OCC)C[C@H]2C(=O)NC2(CC(C)(C)C2)C(=O)N(C)[C@@H](C(CC)CC)C(=O)N(C)[C@H](C(=O)N(C)C)CC(=O)N1C [PP2484]	1 nM	A (a compound having 10 or more and less than 20 is denoted as A)	A (a compound having 10 or more and less than 20 is denoted as A)	74.3 nM
CCO[C@@H]1C[C@H]2C(=O)NC3(CC(C)(C)C3)C(=O)N(C)[C@@H](C(CC)CC)C(=O)N(C)[C@H](C(=O)N(C)C)CC(=O)N(C)[C@@H](CC3CC3)C(=O)N[C@@H]([C@@H](C)CC)C(=O)N(C)CC(=O)N(C)[C@H]3C/C=C\CCN(C3=O)[C@@H](CC3CCC(F)(F)CC3)C(=O)N(C)CC(=O)N[C@@H](CCc3cc(F)c(C(F)(F)F)c(F)c3)C(=O)N2C1 [PP2485]	0.78 nM	A (a compound having 10 or more and less than 20 is denoted as A)	A (a compound having 10 or more and less than 20 is denoted as A)	55.5 nM
CCCOC[C@H]1C(=O)N[C@@H]([C@@H](C)CC)C(=O)N(C)CC(=O)N(C)[C@H]2C/C=C\CCN(C2=O)[C@@H](CC2CCC(F)(F)CC2)C(=O)N(C)CC(=O)N[C@@H](CCc2cc(F)c(C(F)(F)F)c(F)c2)C(=O)N2C[C@@H](C)C[C@H]2C(=O)NC2(CC(C)(C)C2)C(=O)N(C)[C@@H](C(CC)CC)C(=O)N(C)[C@H](C(=O)N(C)C)CC(=O)N1C [PP2490]	1.7 nM	AA (a compound having 20 or more is denoted as AA)	A (a compound having 10 or more and less than 20 is denoted as A)	162 nM
CCO[C@@H]1C[C@H]2C(=O)NC3(CC(C)(C)C3)C(=O)N(C)[C@@H](C(CC)CC)C(=O)N(C)[C@H](C(=O)N(C)C)CC(=O)N(C)[C@@H](C(C)C)C(=O)N[C@@H]([C@@H](C)CC)C(=O)N(C)CC(=O)N(C)[C@H]3C/C=C\CCN(C3=O)[C@@H](CC3CCC(F)(F)CC3)C(=O)N(C)CC(=O)N[C@@H](CCc3ccc(C(F)(F)F)c(Cl)c3)C(=O)N2C1 [PP2492]	2.4 nM	AA (a compound having 20 or more is denoted as AA)	A (a compound having 10 or more and less than 20 is denoted as A)	76.7 nM

— patent EP4603105A1, “PHARMACEUTICAL COMPOSITION CONTAINING CYCLIC COMPOUND HAVING SELECTIVE KRAS INHIBITORY EFFECT AGAINST HRAS AND NRAS” (CHUGAI SEIYAKU KABUSHIKI KAISHA, priority 2022, dated 2024)
